As a reminder, the Kd is the concentration at which binding is half-saturated.

The structures appear in SMILES notation. Structures can show the parent of a compound that is named as a salt. Where two headings read alike, the source gives them in different places.

The text below walks through data of US20220281841A1, “ETHYNYLHETEROCYCLES AS RHO-ASSOCIATED COILED-COIL KINASE (ROCK) INHIBITORS” (Angion Biomedica Corp., priority 2019, published 2022).

The target in one experiment is T1, ROCK1 (Homo sapiens, UniProt Q13464).
T1 construct: purchased DiscoverX (KINOMEscan KdELECT service); host or cells: E. coli BL21-derived (T7 phage) or HEK-293
T1 sequence (Q13464 whole entry): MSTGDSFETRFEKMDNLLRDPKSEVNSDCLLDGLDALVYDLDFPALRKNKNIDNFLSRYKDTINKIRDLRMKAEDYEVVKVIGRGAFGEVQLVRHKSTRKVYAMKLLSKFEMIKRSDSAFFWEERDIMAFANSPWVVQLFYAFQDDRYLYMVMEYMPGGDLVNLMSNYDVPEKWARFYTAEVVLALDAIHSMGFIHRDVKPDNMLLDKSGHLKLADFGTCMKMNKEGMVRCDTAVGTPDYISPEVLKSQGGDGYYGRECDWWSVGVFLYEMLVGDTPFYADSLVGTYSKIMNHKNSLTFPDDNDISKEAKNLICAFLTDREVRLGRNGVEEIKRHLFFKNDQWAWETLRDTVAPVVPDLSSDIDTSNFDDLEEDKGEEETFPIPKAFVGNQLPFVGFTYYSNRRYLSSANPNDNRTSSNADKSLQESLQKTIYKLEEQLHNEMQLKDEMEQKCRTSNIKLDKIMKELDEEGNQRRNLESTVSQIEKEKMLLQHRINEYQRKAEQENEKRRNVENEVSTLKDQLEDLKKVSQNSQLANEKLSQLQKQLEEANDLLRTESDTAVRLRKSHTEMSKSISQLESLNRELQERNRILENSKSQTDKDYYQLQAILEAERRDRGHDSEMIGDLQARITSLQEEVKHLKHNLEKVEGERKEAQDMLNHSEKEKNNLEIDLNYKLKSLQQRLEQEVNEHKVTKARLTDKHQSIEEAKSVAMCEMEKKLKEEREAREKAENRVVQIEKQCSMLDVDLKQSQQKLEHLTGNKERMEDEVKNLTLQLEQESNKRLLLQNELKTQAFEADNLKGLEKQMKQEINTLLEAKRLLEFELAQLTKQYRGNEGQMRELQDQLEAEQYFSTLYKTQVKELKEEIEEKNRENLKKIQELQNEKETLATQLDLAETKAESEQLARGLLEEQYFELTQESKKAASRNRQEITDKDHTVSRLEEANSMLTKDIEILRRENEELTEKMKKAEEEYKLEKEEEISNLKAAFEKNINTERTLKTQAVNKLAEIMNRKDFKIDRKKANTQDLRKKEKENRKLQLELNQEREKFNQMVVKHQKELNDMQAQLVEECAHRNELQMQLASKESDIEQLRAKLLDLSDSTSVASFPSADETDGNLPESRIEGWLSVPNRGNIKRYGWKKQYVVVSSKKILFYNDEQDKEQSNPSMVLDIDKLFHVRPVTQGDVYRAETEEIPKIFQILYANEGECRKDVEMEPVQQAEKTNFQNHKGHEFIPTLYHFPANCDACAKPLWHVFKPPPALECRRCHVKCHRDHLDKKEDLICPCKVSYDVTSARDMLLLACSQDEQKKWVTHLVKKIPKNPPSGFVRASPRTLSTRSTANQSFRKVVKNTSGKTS
Nature of the experiment: ROCK1 kinase binding affinity, DiscoverX KINOMEscan KdELECT. As to conditions: equilibrium dissociation constant, 11-point 3-fold dilution series. The method, then: (§1) 1. ROCK1 and ROCK2 kinase assays: The ROCK1 and ROCK2 kinase binding affinities of compounds in this invention were determined by DiscoverX's KINOMEscan™ KdELECT technology (https://www.discoverx.com/kinomescan-elect-kinase-screening-and-profiling-services): Kinase-tagged T7 phage strains were prepared in an E. coli host derived from the BL21 strain. E. coli were grown to log-phase and infected with T7 phage and incubated with shaking at 32° C. until lysis. The lysates were centrifuged and filtered to remove cell debris. The remaining kinases were produced in HEK-293 cells and subsequently tagged with DNA for qPCR detection. Streptavidin-coated magnetic beads were treated with biotinylated small molecule ligands for 30 minutes at room temperature to generate affinity resins for kinase assays. The liganded beads were blocked with excess biotin and washed with blocking buffer (SeaBlock (Pierce), 1% BSA, 0.05% Tween 20, 1 mM DTT) to remove unbound ligand and to reduce nonspecific binding. […] Test compounds were prepared as 111X stocks in 100% DMSO. Kds were determined using an 11-point 3-fold compound dilution series with three DMSO control points. […] The compounds were then diluted directly into the assays such that the final concentration of DMSO was 0.9%. All reactions performed in polypropylene 384-well plate. Each was a final volume of 0.02 ml. […] The kinase concentration in the eluates was measured by qPCR.

The target in another experiment is T2, ROCK2 (Homo sapiens, UniProt O75116).
T2 construct: purchased DiscoverX (KINOMEscan KdELECT service); host or cells: E. coli BL21-derived (T7 phage) or HEK-293
T2 sequence (O75116 whole entry): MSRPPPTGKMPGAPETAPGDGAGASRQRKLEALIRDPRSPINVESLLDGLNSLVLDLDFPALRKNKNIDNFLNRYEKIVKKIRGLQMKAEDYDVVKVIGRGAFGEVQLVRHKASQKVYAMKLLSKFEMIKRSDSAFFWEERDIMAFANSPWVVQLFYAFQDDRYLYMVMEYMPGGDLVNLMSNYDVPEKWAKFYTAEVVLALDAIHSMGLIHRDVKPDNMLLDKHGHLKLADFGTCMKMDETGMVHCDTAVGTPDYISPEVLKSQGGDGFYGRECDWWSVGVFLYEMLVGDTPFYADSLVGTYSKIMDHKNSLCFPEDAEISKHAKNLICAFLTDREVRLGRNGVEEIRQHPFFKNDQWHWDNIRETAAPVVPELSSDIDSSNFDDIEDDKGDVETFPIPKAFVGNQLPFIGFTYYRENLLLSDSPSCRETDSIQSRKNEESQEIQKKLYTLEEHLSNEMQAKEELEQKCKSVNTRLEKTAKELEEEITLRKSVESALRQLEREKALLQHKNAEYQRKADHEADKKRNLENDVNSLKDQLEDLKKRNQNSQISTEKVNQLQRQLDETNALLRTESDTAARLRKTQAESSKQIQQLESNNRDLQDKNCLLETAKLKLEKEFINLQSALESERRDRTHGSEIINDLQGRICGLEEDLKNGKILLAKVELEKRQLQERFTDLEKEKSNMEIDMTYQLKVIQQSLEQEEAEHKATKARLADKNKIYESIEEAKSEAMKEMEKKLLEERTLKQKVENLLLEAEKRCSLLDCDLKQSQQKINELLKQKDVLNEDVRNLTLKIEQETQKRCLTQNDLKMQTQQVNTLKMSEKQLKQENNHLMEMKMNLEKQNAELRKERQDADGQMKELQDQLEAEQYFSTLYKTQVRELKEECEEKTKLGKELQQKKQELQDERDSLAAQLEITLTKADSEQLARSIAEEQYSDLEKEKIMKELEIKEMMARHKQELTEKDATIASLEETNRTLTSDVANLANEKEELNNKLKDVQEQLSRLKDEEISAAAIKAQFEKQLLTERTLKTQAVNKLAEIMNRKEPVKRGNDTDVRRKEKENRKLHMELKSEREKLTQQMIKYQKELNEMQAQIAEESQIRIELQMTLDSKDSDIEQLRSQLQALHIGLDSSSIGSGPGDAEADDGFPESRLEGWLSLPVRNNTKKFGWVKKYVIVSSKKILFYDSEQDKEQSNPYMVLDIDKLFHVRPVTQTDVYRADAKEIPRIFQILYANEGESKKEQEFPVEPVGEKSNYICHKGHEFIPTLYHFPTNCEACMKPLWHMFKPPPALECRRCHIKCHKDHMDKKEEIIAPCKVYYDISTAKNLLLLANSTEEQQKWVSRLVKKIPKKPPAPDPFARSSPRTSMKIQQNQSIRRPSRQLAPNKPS
Nature of the experiment: ROCK2 kinase binding affinity, DiscoverX KINOMEscan KdELECT. As to conditions: for ROCK 2 Selectivity: ROCK2 over ROCK1, from Kd values, N/C = not calculated. Here is the method: as §1

[1] abbreviates: equilibrium dissociation constant, 11-point 3-fold dilution series, read-out: Kd (μM) ROCK2.

In the case of `Oc1ccc(N2CCN(c3nccc(-c4nccc(C#Cc5ccc6[nH]ncc6c5)n4)n3)CC2)cc1` [Ex. 62, 4-(4-(4-((1H-Indazol-5-yl)ethynyl)-[2,4′-bipyrimidin]-2′-yl)piperazin-1-yl)phenol], the Kd on ROCK1 was determined as 13 µM; at ROCK2 (setting [1]) it was 0.11 µM. The “ROCK 2 Selectivity” value on ROCK2 is 118.2.
In the case of `Fc1ccc2c(c1)CN(c1nccc(-c3cccc(C#Cc4cc(F)c5[nH]ncc5c4)n3)n1)C2` [Ex. 21, 7-Fluoro-5-((6-(2-(5-fluoroisoindolin-2-yl)pyrimidin-4-yl)pyridin-2-yl)ethynyl)-1H-indazole], the Kd at ROCK1 is above 30 µM. Moreover, at ROCK2, binding was characterised by a dissociation constant (Kd) of 6.8 µM and the “ROCK 2 Selectivity” value is above 4.4.
In the case of `COC(=O)c1ccc(C2CN(c3nccc(-c4nccc(C#Cc5ccc6[nH]ncc6c5)n4)n3)C2)cc1` [Ex. 49, Methyl 4-(1-(4-((1H-indazol-5-yl)ethynyl)-[2,4′-bipyrimidin]-2′-yl)azetidin-3-yl)benzoate trifluoroacetate], the Kd at ROCK1 was above 30 µM; on ROCK2 (setting [1]), 0.25 µM. Besides, on ROCK2, the “ROCK 2 Selectivity” value was above 120.
Consider `Fc1ccc2c(c1)CN(c1nccc(-c3nccc(C#Cc4cnc5[nH]ncc5c4)n3)n1)C2` [Ex. 32, 5-((2′-(5-Fluoroisoindolin-2-yl)-[2,4′-bipyrimidin]-4-yl)ethynyl)-1H-pyrazolo[3,4-b]pyridine], for which the dissociation constant Kd at ROCK1 is above 30 µM; on ROCK2 (setting [1]), 0.29 µM. The “ROCK 2 Selectivity” value on ROCK2 is above 103.
Taken in the same sequence, the figures for `COc1ccc2c(c1)CN(c1nccc(-c3nccc(C#Cc4ccc5[nH]ncc5c4)n3)n1)C2` [Ex. 3, 5-((2′-(5-Methoxyisoindolin-2-yl)-[2,4′-bipyrimidin]-4-yl)ethynyl)-1H-indazole] were 0.82 µM, 0.0069 µM and 119.
Taken in the same sequence, the figures for `Fc1ccc2c(c1)CN(c1nccc(-c3cccc(C#Cc4ccc5[nH]ncc5c4)n3)n1)C2` [Ex. 20, 5-((6-(2-(5-Fluoroisoindolin-2-yl)pyrimidin-4-yl)pyridin-2-yl)ethynyl)-1H-indazole] were above 30 µM, 5.5 µM and above 5.4.
Taken in the same sequence, the figures for `CCCN1CCN(c2nccc(-c3nccc(C#Cc4ccc5[nH]ncc5c4)n3)n2)CC1` [Ex. 54, 5-((2′-(4-Propylpiperazin-1-yl)-[2,4′-bipyrimidin]-4-yl)ethynyl)-1H-indazole trifluoroacetate] were 4.6 µM, 0.45 µM and 10.2.
As for `FC(F)(F)c1nnc2n1CCN(c1nccc(-c3nccc(C#Cc4ccc5[nH]ncc5c4)n3)n1)C2` [Ex. 60, 7-(4-((1H-Indazol-5-yl)ethynyl)-[2,4′-bipyrimidin]-2′-yl)-3-(trifluoromethyl)-5,6,7,8-tetrahydro-[1,2,4]triazolo[4,3-a]pyrazine], the equilibrium dissociation constant (Kd) at ROCK1 was 9.9 µM; at ROCK2 (setting [1]) it was 0.21 µM. Also, on ROCK2, the “ROCK 2 Selectivity” value was 47.1.
Turning to `Cc1nnc2n1CCN(c1nccc(-c3nccc(C#Cc4ccc5[nH]ncc5c4)n3)n1)C2` [Ex. 64, 7-(4-((1H-Indazol-5-yl)ethynyl)-[2,4′-bipyrimidin]-2′-yl)-3-methyl-5,6,7,8-tetrahydro-[1,2,4]triazolo[4,3-a]pyrazine], the equilibrium dissociation constant (Kd) on ROCK1 came to 3.4 µM; at ROCK2 (setting [1]) it was 0.33 µM. Also, the “ROCK 2 Selectivity” value at ROCK2 is given as 10.3.
Taken in the same sequence, the figures for `CN(C)CCOc1ccc2c(c1)CN(c1nccc(-c3nccc(C#Cc4ccc5[nH]ncc5c4)n3)n1)C2` [Ex. 39, 2-((2-(4-((1H-Indazol-5-yl)ethynyl)-[2,4′-bipyrimidin]-2′-yl)isoindolin-5-yl)oxy)-N,N-dimethylethanamine] were 0.67 µM, 0.026 µM and 25.8.
Turning to `COc1ccc2c(c1)CN(c1nccc(-c3nccc(C#Cc4ccc(C#N)cc4)n3)n1)C2` [Ex. 9, 4-((2′-(5-Methoxyisoindolin-2-yl)-[2,4′-bipyrimidin]-4-yl)ethynyl)benzonitrile], the Kd on ROCK1 and on ROCK2 (setting [1]) was above 30 µM each time.
For the compound `Clc1ccc(C2CN(c3nccc(-c4nccc(C#Cc5ccc6[nH]ncc6c5)n4)n3)C2)cc1` [Ex. 57, 5-((2′-(3-(4-Chlorophenyl)azetidin-1-yl)-[2,4′-bipyrimidin]-4-yl)ethynyl)-1H-indazole], the Kd was 6.7 µM on ROCK1 and 0.22 µM at ROCK2 (setting [1]). At ROCK2, the “ROCK 2 Selectivity” value was 30.5.
With `C(#Cc1ccnc(-c2ccnc(N3CCN(c4ccccc4)CC3)n2)n1)c1ccc2[nH]ncc2c1` [Ex. 52, 5-((2′-(4-Phenylpiperazin-1-yl)-[2,4′-bipyrimidin]-4-yl)ethynyl)-1H-indazole], the values for the dissociation constant (Kd) at ROCK1 and on ROCK2 (setting [1]) were 9 µM and 0.34 µM, respectively. Further, the “ROCK 2 Selectivity” value at ROCK2 is reported as 26.5.
`CNC(=O)c1ccc(C#Cc2ccnc(-c3ccnc(N4Cc5ccc(OC)cc5C4)n3)n2)cc1` [Ex. 11, 4-((2′-(5-Methoxyisoindolin-2-yl)-[2,4′-bipyrimidin]-4-yl)ethynyl)-N-methylbenzamide]: the Kd at ROCK1 and at ROCK2 (setting [1]) was above 30 µM throughout.
Consider `COc1ccc2c(c1)CN(c1nccc(-c3nccc(C#Cc4ccncc4)n3)n1)C2` [Ex. 1, 5-Methoxy-2-(4-(pyridin-4-ylethynyl)-[2,4′-bipyrimidin]-2′-yl)isoindoline], for which the Kd at ROCK1 and on ROCK2 (setting [1]) was above 30 µM in each case.
As to `CN(C)C(=O)COc1ccc2c(c1)CN(c1nccc(-c3nccc(C#Cc4ccc5[nH]ncc5c4)n3)n1)C2` [Ex. 43, 2-((2-(4-((1H-Indazol-5-yl)ethynyl)-[2,4′-bipyrimidin]-2′-yl)isoindolin-5-yl)oxy)-N,N-dimethylacetamide], the Kd is above 30 µM on ROCK1 and 0.11 µM on ROCK2 (setting [1]). Further, the “ROCK 2 Selectivity” value at ROCK2 is given as above 273.
Taken in the same sequence, the figures for `C(#Cc1ccnc(-c2ccnc(N3Cc4ccc(OCCN5CCOCC5)cc4C3)n2)n1)c1ccc2[nH]ncc2c1` [Ex. 42, 4-(2-((2-(4-((1H-Indazol-5-yl)ethynyl)-[2,4′-bipyrimidin]-2′-yl)isoindolin-5-yl)oxy)ethyl)morpholine] were 0.64 µM, 0.083 µM and 7.71.
For the compound `CN(C)C(=O)COc1cc2c(cn1)CN(c1nccc(-c3nccc(C#Cc4ccc5[nH]ncc5c4)n3)n1)C2` [Ex. 38, 2-((2-(4-((1H-indazol-5-yl)ethynyl)-[2,4′-bipyrimidin]-2′-yl)-2,3-dihydro-1H-pyrrolo[3,4-c]pyridin-6-yl)oxy)-N,N-dimethylacetamide], the equilibrium dissociation constant (Kd) on ROCK1 came out at 2.8 µM; at ROCK2 (setting [1]), 0.64 µM. Besides, on ROCK2, the “ROCK 2 Selectivity” value is reported as 4.37.
Turning to `C(#Cc1ccnc(-c2ccnc(N3CCC(c4ccccc4)C3)n2)n1)c1ccc2[nH]ncc2c1` (stereo not shown) [Ex. 69, 5-((2′-(3-Phenylpyrrolidin-1-yl)-[2,4′-bipyrimidin]-4-yl)ethynyl)-1H-indazole], the results for the equilibrium dissociation constant (Kd) at ROCK1 and on ROCK2 (setting [1]) were 9.4 µM and 0.26 µM, respectively. Besides, the “ROCK 2 Selectivity” value on ROCK2 is reported as 36.2.
Consider `COc1ccc2c(c1)CN(c1nccc(-c3nccc(C#Cc4ccc(C(=O)O)cc4)n3)n1)C2` [Ex. 10, 4-((2′-(5-Methoxyisoindolin-2-yl)-[2,4′-bipyrimidin]-4-yl)ethynyl)benzoic acid], for which the Kd at ROCK1 and on ROCK2 (setting [1]) was above 30 µM throughout.
As for `COc1cccc(C2CCN(c3nccc(-c4nccc(C#Cc5ccc6[nH]ncc6c5)n4)n3)C2)c1` (stereo not shown) [Ex. 70, 5-((2′-(3-(3-Methoxyphenyl)pyrrolidin-1-yl)-[2,4′-bipyrimidin]-4-yl)ethynyl)-1H-indazole], the results for the equilibrium dissociation constant (Kd) at ROCK1 and at ROCK2 (setting [1]) were 6.1 µM and 0.22 µM, respectively. Moreover, the “ROCK 2 Selectivity” value on ROCK2 is listed as 27.7.
Taken in the same sequence, the figures for `CN(C)CCOc1ccc2c(c1)CN(c1nccc(-c3cccc(C#Cc4ccc5[nH]ncc5c4)n3)n1)C2` [Ex. 22, 2-((2-(4-(6-((1H-Indazol-5-yl)ethynyl)pyridin-2-yl)pyrimidin-2-yl)isoindolin-5-yl)oxy)-N,N-dimethylethanamine] were above 30 µM, 1.5 µM and above 20.
As to `COc1ccc2c(c1)CN(c1nccc(-c3nccc(C#Cc4cn[nH]c4)n3)n1)C2` [Ex. 2, 2-(4-((1H-Pyrazol-4-yl)ethynyl)-[2,4′-bipyrimidin]-2′-yl)-5-methoxyisoindoline], the dissociation constant Kd on ROCK1 and at ROCK2 (setting [1]) was above 30 µM throughout.
For the compound `C(#Cc1ccnc(-c2ccnc(N3CCn4cnnc4C3)n2)n1)c1ccc2[nH]ncc2c1` [Ex. 59, 7-(4-((1H-Indazol-5-yl)ethynyl)-[2,4′-bipyrimidin]-2′-yl)-5,6,7,8-tetrahydro-[1,2,4]triazolo[4,3-a]pyrazine], the Kd was 16 µM at ROCK1 and 0.75 µM on ROCK2 (setting [1]). Moreover, the “ROCK 2 Selectivity” value on ROCK2 is reported as 21.3.
For `C(#Cc1ccnc(-c2ccnc(N3CCC(c4ccccc4)CC3)n2)n1)c1ccc2[nH]ncc2c1` [Ex. 55, 5-((2′-(4-Phenylpiperidin-1-yl)-[2,4′-bipyrimidin]-4-yl)ethynyl)-1H-indazole], in that order: 26 µM, 0.9 µM and 28.9.
